≈ marks a conversion by molar mass, not a printed value.
Key:
Plasmodium falciparum [1] = assay: Antimicrobial activity against chloroquine-resistant Plasmodium falciparum W2; format: functional, organism-based
[2] = test system: Mycobacterium tuberculosis; assay: Antitubercular activity against Mycobacterium tuberculosis H37Rv by microplate Alamar blue assay; format: functional
Plasmodium falciparum [3] = assay: Antimicrobial activity against chloroquine-sensitive Plasmodium falciparum D10; format: functional, organism-based
[4] = test system: Mycobacterium tuberculosis; assay: Antitubercular activity against Mycobacterium tuberculosis H37Rv by low-oxygen-recovery assay; format: functional
Falcipain 2 = biological target: T1, Falcipain 2 (Plasmodium falciparum, UniProt Q9N6S8); assay: Inhibition of Plasmodium falciparum falcipain-2
T1 sequence (Q9N6S8 whole entry): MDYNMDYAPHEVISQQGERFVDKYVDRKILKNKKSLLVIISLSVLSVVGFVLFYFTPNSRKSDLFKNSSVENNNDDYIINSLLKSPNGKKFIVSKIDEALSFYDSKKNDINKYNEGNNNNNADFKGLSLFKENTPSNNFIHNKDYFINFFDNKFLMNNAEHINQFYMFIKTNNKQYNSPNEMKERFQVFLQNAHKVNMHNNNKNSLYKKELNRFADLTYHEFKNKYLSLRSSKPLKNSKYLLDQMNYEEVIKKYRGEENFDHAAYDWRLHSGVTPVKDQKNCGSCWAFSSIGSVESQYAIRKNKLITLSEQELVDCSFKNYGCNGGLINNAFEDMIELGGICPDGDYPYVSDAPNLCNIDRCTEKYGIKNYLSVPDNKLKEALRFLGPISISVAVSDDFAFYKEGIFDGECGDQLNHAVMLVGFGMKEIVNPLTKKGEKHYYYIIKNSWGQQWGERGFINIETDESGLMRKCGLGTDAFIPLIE

Structure (SMILES)	IC50 (Plasmodium falciparum [1]) [µM]	MIC [2] [µM]	IC50 (Plasmodium falciparum [3]) [µM]	MIC [4] [µM]	IC50 (Falcipain 2) [µM]
C#CCOc1ccccc1C(=O)/C=C/c1ccc(OC)cc1	> 20	31.1 (≈ 9.09 µg/mL)	> 100	56.7 (≈ 16.6 µg/mL)	> 100
NNC(=O)c1ccncc1 [ISONIAZID]	–	0.37 (≈ 0.0507 µg/mL)	–	> 128	–
COc1c(N2C[C@@H]3CCCN[C@@H]3C2)c(F)cc2c(=O)c(C(=O)O)cn(C3CC3)c12 [MOXIFLOXACIN]	–	0.29 (≈ 0.116 µg/mL)	–	31.1 (≈ 12.5 µg/mL)	–
C#CCOc1cccc(C(=O)/C=C/c2ccc(OC)c(OC)c2OC)c1	> 20	58.7 (≈ 20.7 µg/mL)	33	29.7 (≈ 10.5 µg/mL)	> 100
C#CCOc1cccc(C(=O)/C=C/c2ccc(OC)cc2OC)c1	> 20	> 128	> 100	–	> 100
C#CCOc1ccc(/C=C/C(=O)c2ccc(OC)c(OC)c2OC)cc1	> 20	> 128	13.3	–	> 100
C#CCOc1ccccc1/C=C/C(=O)c1ccc(OC)cc1OC	> 20	59.1 (≈ 19.1 µg/mL)	8	14.9 (≈ 4.8 µg/mL)	> 100
C#CCOc1ccc(/C=C/C(=O)c2ccc(OC)cc2)cc1OC	8.4	> 128	9.7	–	–
C#CCOc1ccc(C(=O)/C=C/c2ccc(OC)cc2)cc1	> 20	> 128	16.5	–	> 100
C#CCOc1ccccc1C(=O)/C=C/c1ccc(OC)c(OC)c1OC	> 20	98.7 (≈ 34.8 µg/mL)	> 100	46.1 (≈ 16.2 µg/mL)	> 100
C#CCOc1cccc(/C=C/C(=O)c2ccc(OC)cc2OC)c1	> 20	54.9 (≈ 17.7 µg/mL)	7.57	26.1 (≈ 8.41 µg/mL)	> 100
C#CCOc1ccc(C(=O)/C=C/c2ccc(OC)cc2OC)cc1	> 20	31 (≈ 9.99 µg/mL)	> 100	108 (≈ 34.8 µg/mL)	> 100
CC(C)C[C@H](NC(=O)[C@H]1O[C@@H]1C(=O)O)C(=O)NCCCCN=C(N)N [E-64]	–	–	–	–	0.047
C#CCOc1ccc(C(=O)/C=C/c2ccc(OC)cc2OC)cc1OC	9.7	> 128	20	–	–
C#CCOc1ccc(/C=C/C(=O)c2ccc(OC)cc2OC)cc1	> 20	> 128	54.8	–	> 100
C#CCOc1ccccc1C(=O)/C=C/c1ccc(OC)cc1OC	> 20	53.7 (≈ 17.3 µg/mL)	18.9	62.8 (≈ 20.2 µg/mL)	> 100
C#CCOc1cccc(C(=O)/C=C/c2ccc(OC)cc2)c1	> 20	51.2 (≈ 15 µg/mL)	> 100	> 128	> 100
C#CCOc1ccc(/C=C/C(=O)c2ccc(OC)cc2)cc1	> 20	> 128	> 100	–	> 100
C#CCOc1ccc(/C=C/C(=O)c2ccc(OC)cc2OC)cc1OC	3.8	> 128	3.4	–	–
C#CCOc1ccc(C(=O)/C=C/c2ccc(OC)c(OC)c2OC)cc1	> 20	> 128	4.43	–	> 100
O=[N+]([O-])c1cn2c(n1)OC[C@@H](OCc1ccc(OC(F)(F)F)cc1)C2 [PRETOMANID]	–	0.16 (≈ 0.0575 µg/mL)	–	3.3 (≈ 1.19 µg/mL)	–
C#CCOc1ccc(C(=O)/C=C/c2ccc(OC)c(OC)c2OC)cc1OC	6.7	> 128	4.1	–	–
C#CCOc1ccccc1/C=C/C(=O)c1ccc(OC)cc1	> 20	47.5 (≈ 13.9 µg/mL)	> 100	50.7 (≈ 14.8 µg/mL)	> 100
C#CCOc1ccccc1/C=C/C(=O)c1ccc(OC)c(OC)c1OC	> 20	61.9 (≈ 21.8 µg/mL)	50.6	28.6 (≈ 10.1 µg/mL)	> 100
C#CCOc1ccc(/C=C/C(=O)c2ccc(OC)c(OC)c2OC)cc1OC	7	109 (≈ 41.7 µg/mL)	7.7	–	–
C#CCOc1cccc(/C=C/C(=O)c2ccc(OC)cc2)c1	> 20	40 (≈ 11.7 µg/mL)	11.6	31.7 (≈ 9.27 µg/mL)	> 100
CO[C@H]1/C=C/O[C@@]2(C)Oc3c(C)c(O)c4c(O)c(c(/C=N/N5CCN(C)CC5)c(O)c4c3C2=O)NC(=O)/C(C)=C\C=C\[C@H](C)[C@H](O)[C@@H](C)[C@@H](O)[C@@H](C)[C@H](OC(C)=O)[C@@H]1C [RIFAMPIN]	–	0.05 (≈ 0.0411 µg/mL)	–	2.4 (≈ 1.98 µg/mL)	–
C#CCOc1cccc(/C=C/C(=O)c2ccc(OC)c(OC)c2OC)c1	> 20	54 (≈ 19 µg/mL)	> 100	13.1 (≈ 4.62 µg/mL)	> 19
